This note sets out measurements from publication PMC8027391, “Fangchinoline suppresses conjunctival melanoma by directly binding FUBP2 and inhibiting the homologous recombination pathway” (Cell Death & Disease, 2021).

Counter-ions that a name gives are not always drawn. Like-named read-outs stand apart in the source and are kept apart here.

For one data set, the system named is CM-AS16. Briefly: cells. Set-up: CCK-8 anti-proliferation assay in conjunctival melanoma cell lines. As for the experimental part:
(§1) The anti-proliferative activity of our in-house drugs against CM-AS16 cells was assessed using the Cell Counting Kit-8 (CCK-8) assay at a final concentration of 10 μM (Fig. 1A). […] These analogues were Chinese herbal monomers harbouring the same bisbenzylisoquinoline core. […] Fangchinoline harbours an exposed hydroxy group, which is suitable for synthesizing functionalized probes and subsequent target identification. […] Next, we assessed the anti-proliferative activity of fangchinoline against three other CM cell lines obtained from patients with a typical NRAS (CRMM2) or BRAF mutation (CRMM1 and CM2005.1)[26],[27]. […] To determine whether fangchinoline could suppress CM properties in vivo, an immunodeficient NCG mice xenograft model was created by subcutaneous inoculation of CM-AS16 cells. NCG mice comes from knocking out the Prkdc and IL2rg genes in NOD/ShiltJ mice through Crispr Cas9 technology. […] The average tumour volume of the control group was 204 mm^3, which was higher than that of the treated groups (50 mg/kg/day fangchinoline, tumour volume: […] CRMM1, CRMM2 and CM2005.1 were generously provided by Professor Martine J. Jager (Leiden University Medical Center, Leiden, The Netherlands)[47] and CM-AS16 was provided by Professor Renbin Jia (Shanghai Ninth People’s Hospital, Shanghai, China). A375 and HEK293T were obtained from American Type Culture Collection. CM-AS16 and CM2005.1 were maintained in 1640H medium, CRMM1 and CRMM2 were maintained in F12K medium, A375 and HEK293T were maintained in DMEM medium, and MRC5 was maintained in MEM medium. All mediums were supplemented with 10% FBS. Cells were cultured at 37 °C in an incubator, in a humidified atmosphere with 5% CO2, periodically checked for mycoplasma-free and validated by short tandem repeats (STR) DNA analysis at BGI Tech Solutions (Beijing Liuhe) Co., Limited.

Another data set relates to CM2005.1. The experiment in a line: cells. On the set-up: CCK-8 anti-proliferation assay in conjunctival melanoma cell lines. As for the experimental part: as §1
The next data set deals with CRMM1. Briefly: cells. On the set-up: CCK-8 anti-proliferation assay in conjunctival melanoma cell lines. As for the experimental part: as §1
In another data set the test system is CRMM2. The experiment in a line: cells. Set-up: CCK-8 anti-proliferation assay in conjunctival melanoma cell lines. The method, then:
as §1

A further data set in a line: in vitro. Set-up: CCK-8 growth inhibition of MRC5 normal fibroblasts (counter-screen). The conditions noted are these: human, mrc5 cells. The method, then:
as §1

The target in data set [1] is T1, far upstream element binding protein 2 (FUBP2) (Homo sapiens, UniProt Q92945).
T1 construct: gene KHSRP; FUBP2 labelled with enhanced green fluorescent protein, obtained from HEK293T cells transfected with plasmids
T1 sequence (Q92945 2-711): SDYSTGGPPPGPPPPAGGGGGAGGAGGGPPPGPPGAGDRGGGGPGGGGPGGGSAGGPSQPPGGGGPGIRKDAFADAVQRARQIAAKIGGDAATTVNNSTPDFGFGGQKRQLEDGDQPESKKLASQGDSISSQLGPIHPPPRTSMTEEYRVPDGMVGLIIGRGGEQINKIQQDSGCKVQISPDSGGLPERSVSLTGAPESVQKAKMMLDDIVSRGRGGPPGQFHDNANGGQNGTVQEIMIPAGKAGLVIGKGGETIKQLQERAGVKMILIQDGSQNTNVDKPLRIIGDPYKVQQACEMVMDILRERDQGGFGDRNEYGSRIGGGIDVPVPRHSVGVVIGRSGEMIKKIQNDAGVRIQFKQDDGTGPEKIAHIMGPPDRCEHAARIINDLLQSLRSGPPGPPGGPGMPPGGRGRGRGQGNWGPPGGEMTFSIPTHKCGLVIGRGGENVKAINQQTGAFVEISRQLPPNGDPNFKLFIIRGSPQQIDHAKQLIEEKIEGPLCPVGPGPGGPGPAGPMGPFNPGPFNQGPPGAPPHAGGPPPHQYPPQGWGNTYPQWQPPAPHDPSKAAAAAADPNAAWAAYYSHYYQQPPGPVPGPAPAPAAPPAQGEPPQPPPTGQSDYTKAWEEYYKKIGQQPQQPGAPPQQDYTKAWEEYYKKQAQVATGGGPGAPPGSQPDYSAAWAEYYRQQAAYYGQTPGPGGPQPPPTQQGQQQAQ
The experiment in a line: microscale thermophoresis (MST, Monolith NT.[…]) with EGFP-labelled FUBP2 from transfected HEK293T cells.

Where [2] appears, read: CM-AS16; read-out: IC50 (μM) CM-AS16.
[3] abbreviates: CM2005.1; read-out: IC50 (μM) CM2005.1.
Setting [4] is: Homo sapiens, CRMM-1; read-out: IC50 (μM) CRMM1.
Setting [5] is: Homo sapiens, CRMM-2; read-out: IC50 (μM) CRMM2.

As usually defined, the IC50 is the midpoint of a concentration-inhibition curve. Take `COc1ccc2cc1Oc1ccc(cc1)C[C@H]1c3c(cc4c(c3Oc3cc5c(cc3OC)CCN(C)[C@@H]5C2)OCO4)CCN1C` [Cepharanthine]: the IC50 came out at 1.63 ± 0.24 µM with CM-AS16 (setting [2]), 7.44 ± 0.08 µM in the data set on CM2005.1 (setting [3]), 4.69 ± 0.17 µM with CRMM1 (setting [4]) and 0.792 ± 0.013 µM in the data set on CRMM2 (setting [5]). In addition, the CC50 in the data set “in vitro” (read-out: IC50 (μM) MRC5) is 8.44 ± 0.54 µM.

Turning to `Cn1cnc2c(F)c(Nc3ccc(Br)cc3F)c(C(=O)NOCCO)cc21` [MEK162], the IC50 in the data set with CM-AS16 (setting [2]) is 0.0077 ± 0.0016 µM; in the data set with CM2005.1 (setting [3]), 0.068 ± 0.008 µM; in the data set on CRMM1 (setting [4]), > 50 µM; in the data set with CRMM2 (setting [5]) it was 0.0136 ± 0.0006 µM. In addition, in the data set “in vitro” (read-out: IC50 (μM) MRC5), the CC50 was found to be 6.32 ± 0.16 µM.

On to `COc1ccc2cc1Oc1ccc(cc1)C[C@H]1c3cc(c(OC)cc3CCN1C)Oc1c(OC)c(OC)cc3c1[C@H](C2)N(C)CC3` [Tetrandrine], for which the IC50 turned out to be 3.2 ± 0.06 µM in the data set with CM-AS16 (setting [2]), 9.7 ± 0.07 µM in the data set on CM2005.1 (setting [3]), 4.77 ± 0.24 µM in the data set on CRMM1 (setting [4]) and 2.16 ± 0.02 µM in the data set with CRMM2 (setting [5]). Besides, the CC50 in the data set “in vitro” (read-out: IC50 (μM) MRC5) is 5.75 ± 0.11 µM.

In the case of `COc1cc2c3cc1Oc1c(OC)c(OC)cc4c1[C@@H](Cc1cccc(c1)Oc1ccc(c(O)c1)C[C@@H]3N(C)CC2)N(C)CC4` [Berbamine Hydrochloride], the half-inhibitory concentration (IC50) came to 8.46 ± 0.22 µM with CM-AS16 (CM-AS16, read-out: IC50 (μM) CM-AS16); 20.2 ± 0.49 µM with CM2005.1 (CM2005.1, read-out: IC50 (μM) CM2005.1); 8.16 ± 0.13 µM with CRMM1 (Homo sapiens, CRMM-1, read-out: IC50 (μM) CRMM1); 4.14 ± 0.5 µM in the data set with CRMM2 (Homo sapiens, CRMM-2, read-out: IC50 (μM) CRMM2). Moreover, in the data set “in vitro”, the CC50 came to 9.03 ± 0.22 µM.

The Kd is the free concentration of one partner at which half of the binding sites on the other are occupied at equilibrium, for simple one-to-one binding. Read a high Kd as a looser complex. In data set [1], `COc1ccc2cc1Oc1ccc(cc1)C[C@H]1c3cc(c(OC)cc3CCN1C)Oc1c(O)c(OC)cc3c1[C@H](C2)N(C)CC3` [fangchinoline] returned a Kd of 246 µM. Besides, the IC50 with CM-AS16 (setting [2]) worked out at 5.67 ± 0.17 µM; in the data set on CM2005.1 (setting [3]) it was 7.4 ± 0.45 µM; with CRMM1 (setting [4]), 2.68 ± 0.07 µM; with CRMM2 (setting [5]), 3.6 ± 0.05 µM. The CC50 in the data set “in vitro” (read-out: IC50 (μM) MRC5) is 4.35 ± 0.11 µM.
